Source: patent US20250320213A1, “Nitrogen-Containing Heterocyclic Compounds” (Pfizer Inc., priority 2024, published 2025)
Read-outs that look alike come from different tables or passages of the source.

What was measured:
STAT6 = target: T1, STAT6 (Homo sapiens, UniProt P42226); experiment: STAT6 Reporter Luciferase Assay (IL-13 stimulated HaCaT keratinocyte NanoLuc reporter cells); type: cell-based; details: read-out: Reporter EC50
T1 construct: stably transfected HaCaT keratinocyte cell line, which expresses NanoLuc luciferase reporter gene under the transcriptional control of the STAT6 responsive promoter; endogenous in cells; host or cells: HaCaT keratinocyte reporter cell line (stably transfected with a NanoLuc reporter)
T1 sequence (P42226 1-847): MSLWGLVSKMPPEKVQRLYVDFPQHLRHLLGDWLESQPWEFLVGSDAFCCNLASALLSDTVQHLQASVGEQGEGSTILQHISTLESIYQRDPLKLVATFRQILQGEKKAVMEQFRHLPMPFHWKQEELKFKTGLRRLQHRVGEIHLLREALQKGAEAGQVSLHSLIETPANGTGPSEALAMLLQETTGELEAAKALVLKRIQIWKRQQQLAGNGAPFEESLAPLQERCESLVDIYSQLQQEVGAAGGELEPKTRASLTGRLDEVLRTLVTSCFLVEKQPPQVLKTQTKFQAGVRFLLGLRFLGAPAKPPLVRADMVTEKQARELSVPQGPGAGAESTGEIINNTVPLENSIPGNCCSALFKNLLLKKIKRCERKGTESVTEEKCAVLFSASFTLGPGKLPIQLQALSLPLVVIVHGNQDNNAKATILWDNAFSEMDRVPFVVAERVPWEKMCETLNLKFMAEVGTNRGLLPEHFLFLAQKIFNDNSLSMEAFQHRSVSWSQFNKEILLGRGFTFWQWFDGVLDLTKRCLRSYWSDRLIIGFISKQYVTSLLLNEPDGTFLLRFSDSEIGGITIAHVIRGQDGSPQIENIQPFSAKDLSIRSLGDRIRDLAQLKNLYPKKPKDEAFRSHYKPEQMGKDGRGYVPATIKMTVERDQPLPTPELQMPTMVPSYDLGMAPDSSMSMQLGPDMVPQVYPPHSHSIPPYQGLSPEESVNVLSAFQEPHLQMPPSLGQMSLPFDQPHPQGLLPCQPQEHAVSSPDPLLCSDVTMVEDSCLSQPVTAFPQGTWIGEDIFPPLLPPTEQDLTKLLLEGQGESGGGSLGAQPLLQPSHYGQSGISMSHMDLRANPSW
In short: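 IL-13 (0.12 nM, 4 h) stimulated STAT6 reporter activity in HaCaT cells after a 2 h compound pre-incubation; NanoLuc signal was measured.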

[1] = system: CCL17 secretion in peripheral human whole blood; experiment: Human Whole Blood (HWB) CCL17 TR-FRET Assay (IL-13 stimulated CCL17 secretion); type: cell-based
In short: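 TR-FRET sandwich immunoassay (665/615 nm ratio) read CCL17 in serum from heparinized whole blood after 16 h RT detection. Blood was exposed to compound for 2 h at 37 °C, then to 10 ng/mL IL-13 (final) for 48 h. IC50 from 11-point, 3-fold titrations in duplicate.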

[2] = STAT6 NanoLuc luciferase reporter, IL-13 stimulated HaCaT keratinocyte cells
[3] = Homo sapiens, 48 h, inhibition of CCL17 secretion in human whole blood, 10 ng/mL IL13, 48 hours
[4] = IL-13 stimulated HaCaT STAT6 NanoLuc reporter cells
[5] = Homo sapiens, 48 h, human whole blood, IL-13 stimulated
[6] = human whole blood, IL-13 stimulated, 48 hours

With `CN(C)C(=O)Nc1ccc(CNC(=O)c2nc(C(F)(F)F)n3c2CN(c2ccc(-c4nccn4C)cn2)CC3)cc1` [Example 42, N-(4-(3,3-Dimethylureido)benzyl)-7-(5-(1-methyl-1H-imidazol-2-yl)pyridin-2-yl)-3-(trifluoromethyl)-5,6,7,8-tetrahydroimidazo[1,5-a]pyrazine-1-carboxamide] as the compound, how does the EC50 (STAT6; [2]) read?
Its EC50 is 10 nM.

And the IC50 [1, 3]?
The IC50 was 136 nM.

How did the EC50 (STAT6; [4]) turn out when `CC(C)n1nc(C(=O)NCc2ccc(NC(=O)N(C)C)cc2)c2c1[C@H](C)[C@@H](C)N(c1ncc(C(=O)N(C)C)cn1)C2` (single isomer, unassigned) [Example 448] was run?
Its EC50 is 13 nM.

What about the IC50 [1, 5] of the same compound?
Its IC50 is greater than 30000 nM.

What does the source list for `CC(CO)n1nc(C(=O)NCc2ccc(NC(=O)N(C)C)cc2)c2c1CCN(c1ccc(C(=O)N(C)C)cn1)C2` (racemic) [Example 351, rac-(R)-5-(5-(dimethylcarbamoyl)pyridin-2-yl)-N-(4-(3,3-dimethylureido)benzyl)-1-(1-hydroxypropan-2-yl)-4,5,6,7-tetrahydro-1H-pyrazolo[4,3-c]pyridine-3-carboxamide]?
EC50 (STAT6; [4]): 73 nM; IC50 [1, 5]: 129 nM

What does the source list for `CC(C)n1nc(C(=O)NCc2ccc(NC(=O)N3CCCN(C)CC3)c(F)c2)c2c1[C@@H](C)CN(c1ccc(C(=O)N(C)C)cn1)C2` [Example 607, (S)-5-(5-(dimethylcarbamoyl)pyridin-2-yl)-N-(3-fluoro-4-(4-methyl-1,4-diazepane-1-carboxamido)benzyl)-1-isopropyl-7-methyl-4,5,6,7-tetrahydro-1H-pyrazolo[4,3-c]pyridine-3-carboxamide]?
EC50 (STAT6; [4]): 2 nM; IC50 ([1]; Homo sapiens, 48 h, human whole blood, 10 ng/mL IL13, 48 hours): 21 nM

Which EC50 (STAT6; [4]) does the source give for `CC(C)n1nc(C(=O)NCc2ccc(NC(=O)N(C)C)cc2)c2c1CCN(c1ccc(CC(=O)N(C)C)cn1)C2` [Example 286, 5-(5-(2-(Dimethylamino)-2-oxoethyl)pyridin-2-yl)-N-(4-(3,3-dimethylureido)benzyl)-1-isopropyl-4,5,6,7-tetrahydro-1H-pyrazolo[4,3-c]pyridine-3-carboxamide] here?
Its EC50 is 663 nM.

What about the IC50 [1, 5] of the same compound?
Its IC50 is greater than 3060 nM.

For `CCc1nc(C(=O)NCc2ccc(NC(=O)N(C)C)cc2)c2n1C(C)CN(c1ccc(C(=O)N(C)C)cn1)C2` (single isomer, unassigned) [Example 233, rel-(R or S)-7-(5-(dimethylcarbamoyl)pyridin-2-yl)-N-(4-(3,3-dimethylureido)benzyl)-3-ethyl-5-methyl-5,6,7,8-tetrahydroimidazo[1,5-a]pyrazine-1-carboxamide], which EC50 (STAT6; [4]) is on record?
Its EC50 is 42 nM.

What about the IC50 [1, 6] of the same compound?
The IC50 was 78 nM.

Which results are given for `CNC(=O)Nc1ccc(CNC(=O)c2nn(C(C)C)c3c2CN(c2ncc(-c4nccn4C)cn2)C[C@@H]3C)cc1` (single isomer, unassigned) [Example 515]?
EC50 (STAT6; [4]): 1 nM; IC50 [1, 5]: 6 nM

`CC(C)n1nc(C(=O)NCc2ccc(NC(=O)N(C)C)cc2)c2c1[C@H](C)[C@@H](C)N(c1ccc(C(=O)N(C)C)cn1)C2` (single isomer, unassigned) [Example 354] was tested. Which EC50 (STAT6; [4]) did it give?
The EC50 was 4 nM.

What about the IC50 [1, 5] of the same compound?
The IC50 was 24 nM.

With `CC(C)n1nc(C(=O)NCc2ccc(NC(=O)N(C)C)cc2)c2c1CCN(c1ccc(N3CC[C@H](F)C3=O)cn1)C2` [Example 84, (S)-N-(4-(3,3-dimethylureido)benzyl)-5-(5-(3-fluoro-2-oxopyrrolidin-1-yl)pyridin-2-yl)-1-isopropyl-4,5,6,7-tetrahydro-1H-pyrazolo[4,3-c]pyridine-3-carboxamide] as the compound, how does the EC50 (STAT6; [2]) read?
The EC50 was 2 nM.

And the IC50 [1, 3]?
Its IC50 is 56 nM.

Which results are given for `CC1CN(c2ccc(-c3nccn3C)cn2)Cc2c(C(=O)NCc3ccc(NC(=O)N(C)C)cc3)nn(C)c21` (single isomer, unassigned) [Example 204, rel-(R or S)-N-(4-(3,3-dimethylureido)benzyl)-1,7-dimethyl-5-(5-(1-methyl-1H-imidazol-2-yl)pyridin-2-yl)-4,5,6,7-tetrahydro-1H-pyrazolo[4,3-c]pyridine-3-carboxamide]?
EC50 (STAT6; [4]): 16 nM; IC50 [1, 6]: 246 nM

How did the EC50 (STAT6; [4]) turn out when `CC(C)n1nc(C(=O)NCc2ccc(-c3ccn(C)n3)cc2)c2c1[C@@H](C)CN(c1ccc(C(=O)N(C)C)cc1)C2` [Example 725, (S)-5-(4-(dimethylcarbamoyl)phenyl)-1-isopropyl-7-methyl-N-(4-(1-methyl-1H-pyrazol-3-yl)benzyl)-4,5,6,7-tetrahydro-1H-pyrazolo[4,3-c]pyridine-3-carboxamide] was run?
The EC50 was 177 nM.

And the IC50 ([1]; Homo sapiens, 48 h, human whole blood, IL-13 10 ng/mL)?
The IC50 was 4460 nM.

Which EC50 (STAT6; [2]) does the source give for `CC(C)n1nc(C(=O)NCc2ccc(NC(=O)N(C)C)cc2)c2c1CCN(c1ccc(N3C(=O)C4CCC3C4)cn1)C2` (stereo not shown) [Example 109, N-(4-(3,3-dimethylureido)benzyl)-1-isopropyl-5-(5-(3-oxo-2-azabicyclo[2.2.1]heptan-2-yl)pyridin-2-yl)-4,5,6,7-tetrahydro-1H-pyrazolo[4,3-c]pyridine-3-carboxamide] here?
The EC50 was 117 nM.

And the IC50 [1, 3]?
The IC50 was greater than 30000 nM.

How did the EC50 (STAT6; [2]) turn out when `CN(C)C(=O)Nc1ccc(CNC(=O)c2nc(C(C)(F)F)n3c2CN(c2ccc(C(=O)N(C)C)cn2)CC3)cc1` [Example 52, 3-(1,1-difluoroethyl)-7-(5-(dimethylcarbamoyl)pyridin-2-yl)-N-(4-(3,3-dimethylureido)benzyl)-5,6,7,8-tetrahydroimidazo[1,5-a]pyrazine-1-carboxamide] was run?
The EC50 was 9 nM.

What about the IC50 [1, 3] of the same compound?
Its IC50 is 64 nM.

Which results are given for `CC(C)n1nc(C(=O)NCc2ccc(NC(=O)N(C)C)cn2)c2c1C(C(F)(F)F)CN(c1ccc(C(=O)N(C)C)cn1)C2` (racemic) [Example 121, rac-(R)-5-(5-(dimethylcarbamoyl)pyridin-2-yl)-N-((5-(3,3-dimethylureido)pyridin-2-yl)methyl)-1-isopropyl-7-(trifluoromethyl)-4,5,6,7-tetrahydro-1H-pyrazolo[4,3-c]pyridine-3-carboxamide]?
EC50 (STAT6; [2]): 1 nM; IC50 [1, 3]: 6 nM

How did the EC50 (STAT6; [2]) turn out when `CC(C)n1nc(C(=O)NCc2ccc(NC(=O)N(C)C)cc2)c2c1CCN(c1ccc(N3CC(O)CC3=O)cn1)C2` (racemic) [Example 93, rac-(R)-N-(4-(3,3-dimethylureido)benzyl)-5-(5-(4-hydroxy-2-oxopyrrolidin-1-yl)pyridin-2-yl)-1-isopropyl-4,5,6,7-tetrahydro-1H-pyrazolo[4,3-c]pyridine-3-carboxamide] was run?
The EC50 was 525 nM.

And the IC50 [1, 3]?
The IC50 was 2270 nM.

`CC(C)n1nc(C(=O)NCc2ccc(NC(=O)N(C)C)cc2)c2c1C(O)CN(c1ccc(C(=O)N(C)C)cn1)C2` (single isomer, unassigned) [Example 474, rel-(R or S)-5-(5-(dimethylcarbamoyl)pyridin-2-yl)-N-(4-(3,3-dimethylureido)benzyl)-7-hydroxy-1-isopropyl-4,5,6,7-tetrahydro-1H-pyrazolo[4,3-c]pyridine-3-carboxamide] was tested. Which EC50 (STAT6; [4]) did it give?
The EC50 was 40 nM.

What about the IC50 [1, 6] of the same compound?
Its IC50 is 85 nM.

For `CCCn1nc(C(=O)NCc2ccc(NC(=O)N(C)C)cc2)c2c1CCN(c1ccc(C(=O)N(C)C)cn1)C2` [Example 74, 5-(5-(dimethylcarbamoyl)pyridin-2-yl)-N-(4-(3,3-dimethylureido)benzyl)-1-propyl-4,5,6,7-tetrahydro-1H-pyrazolo[4,3-c]pyridine-3-carboxamide], which EC50 (STAT6; [2]) is on record?
Its EC50 is 11 nM.

What about the IC50 [1, 3] of the same compound?
The IC50 was 120 nM.

How did the EC50 (STAT6; [4]) turn out when “rel-(R or S)-5-(5-(dimethylcarbamoyl)pyridin-2-yl)-N-(4-(3,3-dimethylureido)benzyl)-1-methyl-7- [Example 390]” was run?
The EC50 was 39 nM.

And the IC50 [1, 6]?
Its IC50 is 104 nM.

How did the EC50 (STAT6; [2]) turn out when `CCn1nc(C(=O)NCc2ccc(NC(=O)N(C)C)cc2)c2c1C[C@H](C)N(c1ccc(C(=O)N(C)C)cn1)C2` (single isomer, unassigned) [Example 111] was run?
Its EC50 is 3 nM.

What about the IC50 [1, 3] of the same compound?
The IC50 was 13 nM.

`CCn1nc(C(=O)NCc2ccc(NC(=O)N(C)C)cc2)c2c1CCN(c1ccc(-c3nccn3C)cn1)C2` [Example 30, N-(4-(3,3-Dimethylureido)benzyl)-1-ethyl-5-(5-(1-methyl-1H-imidazol-2-yl)pyridin-2-yl)-4,5,6,7-tetrahydro-1H-pyrazolo[4,3-c]pyridine-3-carboxamide] was tested. Which EC50 (STAT6; [2]) did it give?
Its EC50 is 5 nM.

What about the IC50 [1, 3] of the same compound?
Its IC50 is 87 nM.
